Data taken from patent US12065404B2, “C4-carboxylic acid-substituted tryptamine derivatives and methods of using” (priority 2022, dated 2024).
“And” between values parts separate entries of the source, which are not always exact repeats. Equal entries are not always repeated.

Tests used:
[1] = Mouse pharmacokinetic (PK) study, parent compound and psilocin metabolite in plasma; type: in vivo, C57Bl/6 mice; conditions: for bioavailability: male, C57Bl/6, mouse, plasma, po
From the text: Briefly, the procedure was as follows. […] 19, 2022.

GABAA = GABAA (Homo sapiens, UniProt P14867+P18507+P47870); type: cell-based; conditions: ion channel
[2] = administered compound itself in plasma, 1 mg/kg i.v., individual animals, 1 mg/kg
[3] = administered compound itself in plasma, 1 mg/kg i.v., mean ± SD
[4] = administered compound itself in plasma, 1 mg/kg oral, individual animals, 1 mg/kg
[5] = administered compound itself in plasma, 1 mg/kg oral, mean ± SD, 1 mg/kg
[6] = administered compound itself in plasma, 3 mg/kg oral, individual animals, 3 mg/kg
[7] = administered compound itself in plasma, 3 mg/kg oral, mean ± SD
[8] = administered compound itself in plasma, 3 mg/kg oral, mean ± SD, 3 mg/kg
[9] = administered compound itself in plasma, 10 mg/kg oral, individual animals, 10 mg/kg
[10] = administered compound itself in plasma, 10 mg/kg oral, mean ± SD

Chain of GABAA (P14867 28-456): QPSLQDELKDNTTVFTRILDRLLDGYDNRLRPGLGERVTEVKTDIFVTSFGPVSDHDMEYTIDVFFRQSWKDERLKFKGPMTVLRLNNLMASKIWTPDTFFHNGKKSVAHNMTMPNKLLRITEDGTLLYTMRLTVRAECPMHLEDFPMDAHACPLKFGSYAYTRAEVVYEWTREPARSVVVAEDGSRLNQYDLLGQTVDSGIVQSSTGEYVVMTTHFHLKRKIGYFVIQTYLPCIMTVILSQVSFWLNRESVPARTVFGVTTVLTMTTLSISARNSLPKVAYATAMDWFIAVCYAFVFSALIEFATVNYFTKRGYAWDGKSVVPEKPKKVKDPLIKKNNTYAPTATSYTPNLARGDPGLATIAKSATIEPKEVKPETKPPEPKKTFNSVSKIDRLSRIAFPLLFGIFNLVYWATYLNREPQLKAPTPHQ
Chain of GABAA (P47870 26-512): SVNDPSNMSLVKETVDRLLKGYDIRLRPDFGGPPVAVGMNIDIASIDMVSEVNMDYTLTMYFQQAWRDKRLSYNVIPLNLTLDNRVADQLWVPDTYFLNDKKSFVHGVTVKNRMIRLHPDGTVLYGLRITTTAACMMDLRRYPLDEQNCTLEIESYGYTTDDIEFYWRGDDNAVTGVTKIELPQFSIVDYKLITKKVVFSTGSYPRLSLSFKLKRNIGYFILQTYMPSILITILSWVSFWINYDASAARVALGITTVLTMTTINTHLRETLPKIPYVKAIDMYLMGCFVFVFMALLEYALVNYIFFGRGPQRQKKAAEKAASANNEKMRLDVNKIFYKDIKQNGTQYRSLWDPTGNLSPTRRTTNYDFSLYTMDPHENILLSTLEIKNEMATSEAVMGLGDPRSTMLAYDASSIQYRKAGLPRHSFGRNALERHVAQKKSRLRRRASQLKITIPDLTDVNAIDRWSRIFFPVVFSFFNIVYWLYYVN
Chain of GABAA (P18507 40-475): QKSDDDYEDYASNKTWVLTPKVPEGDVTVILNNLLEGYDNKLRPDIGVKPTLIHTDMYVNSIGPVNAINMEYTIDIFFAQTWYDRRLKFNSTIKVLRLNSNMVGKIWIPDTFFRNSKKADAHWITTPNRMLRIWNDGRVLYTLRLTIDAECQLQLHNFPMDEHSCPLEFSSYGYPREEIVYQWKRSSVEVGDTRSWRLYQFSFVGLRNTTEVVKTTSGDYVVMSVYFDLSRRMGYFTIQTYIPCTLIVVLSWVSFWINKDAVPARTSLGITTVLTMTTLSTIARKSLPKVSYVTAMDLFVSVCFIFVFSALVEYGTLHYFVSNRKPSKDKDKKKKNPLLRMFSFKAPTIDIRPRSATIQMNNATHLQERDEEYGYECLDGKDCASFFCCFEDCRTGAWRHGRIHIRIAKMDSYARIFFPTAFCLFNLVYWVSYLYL

CN(C)CCc1c[nH]c2cccc(OC(=O)c3ccc(Br)cc3)c12 [C(I)]
F(%), M37 considered as an outlier ([1]; 10 mg/kg oral, AUC0-tlast used for p.o. group, i.v. animal M37 considered an outlier, mean ± SD): 3.22 ± 0.731% | F(%) ([1]; 10 mg/kg oral, AUC0-tlast used for p.o. group, individual animals): 0.447% and 0.627% | AUC0-inf [1, 2]: 1014 ng·h/mL and 64.4 ng·h/mL and 51.9 ng·h/mL | AUC0-inf/Dose [1, 2]: 1014 kg·ng·h/mL/mg and 64.4 kg·ng·h/mL/mg and 51.9 kg·ng·h/mL/mg | AUC0-tlast [1, 2]: 1006 ng·h/mL and 63.7 ng·h/mL and 51.4 ng·h/mL | AUC0-tlast/Dose [1, 2]: 1006 kg·ng·h/mL/mg and 63.7 kg·ng·h/mL/mg and 51.4 kg·ng·h/mL/mg | Apparent t1/2 [1, 2]: 72.6 min and 38.6 min | C0 [1, 2]: 3792 ng/mL and 168 ng/mL and 132 ng/mL | CL [1, 2]: 16.4 mL/min/kg and 258.9 mL/min/kg and 321.08 mL/min/kg | MRT0-inf [1, 2]: 46.8 min and 39.4 min | Vss [1, 2]: 0.56 L/kg and 12.109 L/kg and 12.65 L/kg | AUC0-inf/Dose [1, 3]: 377 ± 552 kg·ng·h/mL/mg | AUC0-tlast/Dose [1, 3]: 374 ± 548 kg·ng·h/mL/mg | MRT0-inf [1, 3]: 40.1 ± 6.36 min | AUC0-tlast/Dose ([1]; administered compound itself in plasma, 1 mg/kg i.v., mean, n = 2 (apparently without possible outlier M37)): 57.6 kg·ng·h/mL/mg | AUC0-tlast [1, 4]: 2.09 ng·h/mL and 0.169 ng·h/mL and 1.75 ng·h/mL | AUC0-tlast/Dose [1, 4]: 2.09 kg·ng·h/mL/mg and 0.169 kg·ng·h/mL/mg and 1.75 kg·ng·h/mL/mg | Cmax [1, 4]: 0.816 ng/mL and 0.54 ng/mL and 1.28 ng/mL | Cmax/Dose [1, 4]: 0.816 kg·ng/mL/mg and 0.54 kg·ng/mL/mg and 1.28 kg·ng/mL/mg | AUC0-tlast/Dose [1, 5]: 1.34 ± 1.02 kg·ng·h/mL/mg and 1.34 kg·ng·h/mL/mg | Cmax/Dose [1, 5]: 0.877 ± 0.376 kg·ng/mL/mg and 0.877 kg·ng/mL/mg | AUC0-tlast [1, 6]: 5.47 ng·h/mL and 5.91 ng·h/mL | AUC0-tlast/Dose [1, 6]: 1.75 kg·ng·h/mL/mg and 1.82 kg·ng·h/mL/mg and 1.97 kg·ng·h/mL/mg | Cmax [1, 6]: 2.16 ng/mL and 2.34 ng/mL | Cmax/Dose [1, 6]: 0.650 kg·ng/mL/mg and 0.720 kg·ng/mL/mg and 0.780 kg·ng/mL/mg | tmax [1, 6]: 15 min | AUC0-tlast [1, 7]: 5.54 ± 0.330 ng·h/mL | Cmax [1, 7]: 2.15 ± 0.195 ng/mL | AUC0-tlast/Dose [1, 8]: 1.85 ± 0.110 kg·ng·h/mL/mg and 1.85 kg·ng·h/mL/mg | Cmax/Dose [1, 8]: 0.717 ± 0.0651 kg·ng/mL/mg and 0.717 kg·ng/mL/mg | AUC0-inf [1, 9]: 24.1 ng·h/mL | AUC0-tlast [1, 9]: 16.8 ng·h/mL and 23.6 ng·h/mL | AUC0-tlast/Dose [1, 9]: 1.58 kg·ng·h/mL/mg and 1.68 kg·ng·h/mL/mg and 2.36 kg·ng·h/mL/mg | Apparent t1/2 [1, 9]: 70.2 min | Cmax [1, 9]: 7.10 ng/mL and 10.9 ng/mL | Cmax/Dose [1, 9]: 0.720 kg·ng/mL/mg and 0.710 kg·ng/mL/mg and 1.09 kg·ng/mL/mg | MRT0-inf [1, 9]: 144 min | tmax [1, 9]: 30 min | AUC0-tlast/Dose [1, 10]: 1.87 ± 0.425 kg·ng·h/mL/mg | Cmax/Dose [1, 10]: 0.840 ± 0.217 kg·ng/mL/mg | bioavailability ([1]; 1 mg/kg, 1 mg/kg oral, AUC0-tlast used for p.o. group, value might be under-estimated, mean ± SD): 0.355 ± 0.272% | bioavailability ([1]; 3 mg/kg, 3 mg/kg oral, AUC0-tlast used for p.o. group, value might be under-estimated, individual animals): 0.466% | bioavailability ([1]; 3 mg/kg, 3 mg/kg oral, AUC0-tlast used for p.o. group, value might be under-estimated, mean ± SD): 0.491 ± 0.0292% | bioavailability ([1]; 10 mg/kg, 10 mg/kg oral, AUC0-tlast used for p.o. group, individual animals): 0.419% | bioavailability ([1]; 10 mg/kg, 10 mg/kg oral, AUC0-tlast used for p.o. group, mean ± SD): 0.498 ± 0.113% | IC50 (GABAA; blocker (BL)): > 100 µM | EC50 (GABAA; opener (OP)): > 100 µM
